Experimental data taken from patent US9498450B2, “1-aminocyclohexane derivatives for the treatment of cochlear tinnitus” (MERZ PHARMA GmbH & CO. KGaA, priority 2007, dated 2016).

Test system: subjects with subjective tinnitus of at least moderate severity
Assay: Double blind placebo controlled pilot trial of neramexane for treatment of tinnitus (TBF-12/THF-12 total score)
Type: in vivo, human
Details: for Change in TBF-12 total score, Week 16 Neramexane-Placebo LSMean / TBF-12 total score, Change LSMean / TBF-12 total score, Neramexane-Placebo LSMean Diff. ± SE / TBF-12 total score, Week 16 Change Mean ± SD / TBF-12 total score, Week 16 Actual Mean ± SD: ITT-LOCF; for TBF-12 total score, Change LSMean / TBF-12 total score, Neramexane-Placebo LSMean Diff. ± SE / TBF-12 total score, Week 16 Change Mean ± SD: baseline to week 16; for improvement as compared to placebo treatment (difference): 50 mg dose group
Experimental: Visit 1 (screening): After signing the consent form, the subject underwent a physical examination and clinical laboratory testing. Patient eligibility for the study was evaluated via a check of inclusion/exclusion criteria. An initial Tinnitus Interview was conducted. The subject also completed a Tinnitus-Beeinträchtigungs-Fragebogen (THF-12) (i.e., a 12-item German modified and validated version (Greimel K V et al., Tinnitus-Beeinträchtigungs-Fragebogen (THF-12). Manual. Frankfurt am Main: Swets & Zeitlinger B. V.; 2000) of the 25-item Tinnitus Handicap Inventory or THI (Newman C W, et al. Development of the Tinnitus Handicap Inventory. Arch Otolaryngol Head Neck Surg 1996; 122(2): 143-148; Newman C W, et al. Psychometric adequacy of the Tinnitus Handicap Inventory (THI) for evaluating treatment outcome. J Am Acad Audiol 1998; 9(2): 153-160.)), a Hospital Anxiety and Depression Scale—Depression Subscale (HADS-D) Questionnaire and a Hyperacusis (Geräuschüberempfindlichkeit-Fragenbogen (GÜF)) Questionnaire (if applicable).
Visit 2 (baseline): The subject was asked about adverse events and changes in concomitant medication/disease, which events/changes were documented. The subject was evaluated for study eligibility based on a review of the inclusion/exclusion criteria. Trial procedures as well as allowed and forbidden concomitant medications were reviewed with the subject. An initial Tinnitus Interview was conducted. The subject also completed a THF-12, HADS-D Questionnaire and GÜF Questionnaire (if applicable). The subject was enrolled in the study and study medication (placebo or neramexane) was dispensed as described below.
Visit 6 (Week 16, end of treatment): This visit occurred at the end of the 12-week fixed-dose double-blind treatment period. The subject was asked about adverse events and changes in concomitant medication/disease, which changes are documented. A clinical laboratory evaluation was performed. A follow-up Tinnitus Interview was conducted, and the subject completed a THF-12, HADS-D Questionnaire and GÜF Questionnaire (if applicable). Pure-tone audiometry (air conduction) was also conducted.
Primary Outcome • The change in THF-12 total score from baseline (Visit 2) to the endpoint visit (Visit 6, i.e. Week 16) was the primary efficacy endpoint in this study.
All efficacy analyses were performed on the ITT population using the last-observation-carried-forward (LOCF) approach. For sensitivity purposes an analysis of the per-protocol set and of observed cases was performed additionally. All statistical tests used for testing the primary efficacy (confirmatory testing) and secondary efficacy criteria (exploratory), and all other statistical tests used for exploratory analyses were two-sided hypothesis tests performed at the 5% significance level. For all variables standard descriptive statistics were calculated.
Change from baseline (Visit 2) to Week 16 in THF-12 total score was analyzed using a two-way ANCOVA model with treatment group and study centers as factors and baseline THF-12 total score as covariate. […]

[1] = 25 mg/d, subjects with mild hearing loss
[2] = 25 mg/d, subjects with tinnitus duration 3 to <8 months
[3] = 25 mg/d, total study population
[4] = 50 mg/d, subjects with mild hearing loss
[5] = 50 mg/d, subjects with tinnitus duration 3 to <8 months
[6] = 50 mg/d, total study population
[7] = 75 mg/d, subjects with mild hearing loss
[8] = 75 mg/d, subjects with tinnitus duration 3 to <8 months
[9] = 75 mg/d, total study population

CC1(C)CC(C)(C)CC(C)(N)C1 [Neramexane, 1-amino-1,3,3,5,5-pentamethylcyclohexane]
Change in TBF-12 total score, Week 16 Neramexane-Placebo LSMean (25 mg/d, HADS-D Anxiety subscale 0-7 at baseline): 0.2
Change in TBF-12 total score, Week 16 Neramexane-Placebo LSMean (25 mg/d, HADS-D Anxiety subscale 8-10 at baseline): −2.3
Change in TBF-12 total score, Week 16 Neramexane-Placebo LSMean (25 mg/d, HADS-D Anxiety subscale >10 at baseline): 2.3
Change in TBF-12 total score, Week 16 Neramexane-Placebo LSMean (25 mg/d, HADS-D Depression subscale 0-7 at baseline): −0.3
Change in TBF-12 total score, Week 16 Neramexane-Placebo LSMean (25 mg/d, HADS-D Depression subscale 8-10 at baseline): 0.6
Change in TBF-12 total score, Week 16 Neramexane-Placebo LSMean (25 mg/d, HADS-D Depression subscale >10 at baseline): 3.9
TBF-12 total score, Change LSMean [1]: −1.3
TBF-12 total score, Neramexane-Placebo LSMean Diff. ± SE [1]: 0.7 ± 0.9
TBF-12 total score, Week 16 Change Mean ± SD [1]: −1.5 ± 3.4
TBF-12 total score, Week 16 Actual Mean ± SD (25 mg/d, subjects with mild hearing loss, score range 0-24): 13.1 ± 5.8
TBF-12 total score, Change LSMean [2]: −2.2
TBF-12 total score, Neramexane-Placebo LSMean Diff. ± SE [2]: 0.0 ± 0.8
TBF-12 total score, Week 16 Change Mean ± SD [2]: −2.5 ± 3.0
TBF-12 total score, Change LSMean [3]: −1.8
TBF-12 total score, Neramexane-Placebo LSMean Diff. ± SE [3]: 0.5 ± 0.5
TBF-12 total score, Week 16 Change Mean ± SD [3]: −2.0 ± 3.4
improvement as compared to placebo treatment (difference) (patients who showed a mild hearing loss, post-hoc p=0.024): −1.9 points
improvement as compared to placebo treatment (difference) (patients whose onset of tinnitus was three to eight months before treatment, post-hoc p=0.019): −1.9 points
Change in TBF-12 total score, Week 16 Neramexane-Placebo LSMean (50 mg/d, HADS-D Anxiety subscale 0-7 at baseline): −0.5
Change in TBF-12 total score, Week 16 Neramexane-Placebo LSMean (50 mg/d, HADS-D Anxiety subscale 8-10 at baseline): −2.9
Change in TBF-12 total score, Week 16 Neramexane-Placebo LSMean (50 mg/d, HADS-D Anxiety subscale >10 at baseline): 0.6
Change in TBF-12 total score, Week 16 Neramexane-Placebo LSMean (50 mg/d, HADS-D Depression subscale 0-7 at baseline): −1.3
Change in TBF-12 total score, Week 16 Neramexane-Placebo LSMean (50 mg/d, HADS-D Depression subscale 8-10 at baseline): −1.1
Change in TBF-12 total score, Week 16 Neramexane-Placebo LSMean (50 mg/d, HADS-D Depression subscale >10 at baseline): 3.3
TBF-12 total score, Change LSMean [4]: −3.9
TBF-12 total score, Neramexane-Placebo LSMean Diff. ± SE [4]: −1.9 ± 0.8
TBF-12 total score, Week 16 Change Mean ± SD [4]: −3.8 ± 3.9
TBF-12 total score, Week 16 Actual Mean ± SD (50 mg/d, subjects with mild hearing loss, score range 0-24): 11.5 ± 5.2
TBF-12 total score, Change LSMean [5]: −4.0
TBF-12 total score, Neramexane-Placebo LSMean Diff. ± SE [5]: −1.9 ± 0.8
TBF-12 total score, Week 16 Change Mean ± SD [5]: −4.2 ± 3.9
TBF-12 total score, Week 16 Actual Mean ± SD (50 mg/d, subjects with tinnitus duration 3 to <8 months, score range 0-24): 10.0 ± 5.1
TBF-12 total score, Change LSMean [6]: −3.1
TBF-12 total score, Neramexane-Placebo LSMean Diff. ± SE [6]: −0.8 ± 0.5
TBF-12 total score, Week 16 Change Mean ± SD [6]: −3.2 ± 4.1
Change in TBF-12 total score, Week 16 Neramexane-Placebo LSMean (75 mg/d, HADS-D Anxiety subscale 0-7 at baseline): 0.1
Change in TBF-12 total score, Week 16 Neramexane-Placebo LSMean (75 mg/d, HADS-D Anxiety subscale 8-10 at baseline): −3.1
Change in TBF-12 total score, Week 16 Neramexane-Placebo LSMean (75 mg/d, HADS-D Anxiety subscale >10 at baseline): 0.3
Change in TBF-12 total score, Week 16 Neramexane-Placebo LSMean (75 mg/d, HADS-D Depression subscale 0-7 at baseline): −0.9
Change in TBF-12 total score, Week 16 Neramexane-Placebo LSMean (75 mg/d, HADS-D Depression subscale 8-10 at baseline): 0.0
Change in TBF-12 total score, Week 16 Neramexane-Placebo LSMean (75 mg/d, HADS-D Depression subscale >10 at baseline): 0.4
TBF-12 total score, Change LSMean [7]: −1.8
TBF-12 total score, Neramexane-Placebo LSMean Diff. ± SE [7]: −0.2 ± 0.9
TBF-12 total score, Week 16 Change Mean ± SD [7]: −1.9 ± 3.2
TBF-12 total score, Week 16 Actual Mean ± SD (75 mg/d, subjects with mild hearing loss, score range 0-24): 12.0 ± 4.6
TBF-12 total score, Change LSMean [8]: −3.3
TBF-12 total score, Neramexane-Placebo LSMean Diff. ± SE [8]: −1.1 ± 0.8
TBF-12 total score, Week 16 Change Mean ± SD [8]: −3.4 ± 4.0
TBF-12 total score, Week 16 Actual Mean ± SD (75 mg/d, subjects with tinnitus duration 3 to <8 months, score range 0-24): 10.6 ± 5.0
TBF-12 total score, Week 16 Actual Mean ± SD [9]: 11.0 ± 5.1
TBF-12 total score, Change LSMean [9]: −2.8
TBF-12 total score, Neramexane-Placebo LSMean Diff. ± SE [9]: −0.5 ± 0.5
TBF-12 total score, Week 16 Change Mean ± SD [9]: −2.9 ± 3.9
benefit compared to patients with HADS score below 10 at baseline (50 or 75 mg daily dose monotherapy, patients with HADS total score of 10 or more at baseline): weaker benefit
response (effect in treating tinnitus) compared to total study population (patients treated within three to eight months of onset of tinnitus and patients with mild hearing loss): better response
response to treatment (subgroup analysis) (subjects classified by investigators as suffering from cochlear tinnitus): responded well
